Laboratory results reported in patent publication US9420797B2, “Method for preparing biocidal aqueous compositions” (BROMINE COMPOUNDS LTD., priority 2012, dated 2016).

Key:
[1] = system: Pseudomonas aeruginosa (ATCC 15442) entrapped in alginate gel beads; assay: Biocidal activity against simulated biofilm (bacteria entrapped in alginate gel beads), surviving CFU; conditions: contact time 24 hours, count at time 0 1.40E+07
[2] = system: Inoculum of bacteria (Activated sludge taken from Domestic Waste Water treatment Plant—Haifa); assay: Microbial efficacy (% kill) under different TOC loading, activated sludge bacteria, pour plate count on R2A agar; type: cell-based; conditions: contact time 30 min, pH 7
Text: Inoculum of bacteria (Activated sludge taken from Domestic Waste Water treatment Plant-Haifa). R2A agar for general counting. Tryptone, in amounts of either 0.025, or 0.119 or 0.239 g solid tryptone, was weighed and dissolved in 1 liter of buffer. Neutralization solution (NaHSO4). Chlorourea solution, prepared from aq. urea hydrochloride (consisting of 5.8% HCl and 38.2% urea, Wt %) and a 12.9% aq NaOCl as Cl2, Wt %); Urea, HCl:NaOCl 4:1:1 molar ratio. The biocidal efficacy of the antifouling composition at different organic loads of 0, 10, 30 and 50 ppm TOC, was examined under different biocidal concentrations (2.5, 5 and 10 ppm) at pH 7. 1) 1 ml of inoculum was added to tryptone solutions (placed in 3 erlenmeyer flasks, 100 ml each, with different concentrations of TOC-0, 10, 30 and 50 ppm). 2) 1 ml of each sample was inoculated on […] agar (pour plate method). The result stands for the bacteria count at zero time. 3) For each of the tryptone concentrations (0, 10, 30, 50 ppm TOC) an inoculum of bacteria (1 ml) and the appropriate biocide concentration were added. 4) After 30 and 60 min. of shaking (100 rpm), 1 ml of each sample was transferred to a tube filled with 9 ml of the neutralization solution. An aliquot of 1 ml was taken from this solution and added to another tube containing 9 ml of buffer solution. The solution was mixed under vortex. This operation was repeated 4 more times. 5) 1 ml from the two lowest dilutions was inoculated on a […] agar (by the pour plate method). 6) After the plates were incubated at 25° C. for 5-7 days, the bacteria count was recorded.

OCl [NaOCl, sodium hypochlorite] was tested. Which “survival of bacteria (CFU)” value ([1]; biocide 0.5 ppm as Cl2) did it give?
Its value is 3.6E+06 CFU.

What about the “survival of bacteria (CFU)” value ([1]; biocide 1 ppm as Cl2) of the same compound?
The value was 2.53E+06 CFU.

What about the “survival of bacteria (CFU)” value ([1]; biocide 2.5 ppm as Cl2) of the same compound?
The value was 1.00E+00 CFU.

And the “survival of bacteria (CFU)” value ([1]; biocide 5 ppm as Cl2)?
The value was 1.00E+00 CFU.

And the “% Kill” value ([2]; TOC 0 ppm, biocide 2.5 ppm as Cl2)?
Its value is 98.8%.

And the “% Kill” value ([2]; TOC 0 ppm, biocide 5 ppm as Cl2)?
The value was 99.6%.

And the “% Kill” value ([2]; TOC 0 ppm, biocide 10 ppm as Cl2)?
The value was 99.9%.

And the “% Kill” value ([2]; TOC 10 ppm, biocide 2.5 ppm as Cl2)?
The value was 37.7%.

What about the “% Kill” value ([2]; TOC 10 ppm, biocide 5 ppm as Cl2) of the same compound?
The value was 97.8%.

What about the “% Kill” value ([2]; TOC 10 ppm, biocide 10 ppm as Cl2) of the same compound?
The value was 99.5%.

And the “% Kill” value ([2]; TOC 30 ppm, biocide 2.5 ppm as Cl2)?
The value was 11.6%.

And the “% Kill” value ([2]; TOC 30 ppm, biocide 5 ppm as Cl2)?
The value was 78.2%.

What about the “% Kill” value ([2]; TOC 30 ppm, biocide 10 ppm as Cl2) of the same compound?
The value was 93.6%.

What about the “% Kill” value ([2]; TOC 50 ppm, biocide 2.5 ppm as Cl2) of the same compound?
Its value is 24.1%.

And the “% Kill” value ([2]; TOC 50 ppm, biocide 5 ppm as Cl2)?
Its value is 49.2%.

And the “% Kill” value ([2]; TOC 50 ppm, biocide 10 ppm as Cl2)?
Its value is 91.7%.
